Measurements from patent publication US20120010178A1, “METHODS AND COMPOUNDS FOR TREATMENT OF NEURODEGENERATIVE DISORDERS” (PRESIDENT AND FELLOWS OF HARVARD COLLEGE, priority 2008, published 2012).
Entries after “also recorded” stand apart in the source; their conditions may differ. One block for each compound: values may come before it. Residues, ends and D or L forms follow the SMILES beside them. *: point of attachment. Cbz = O=C(OCc1ccccc1)*

Assays:
SMN [1] = assay: SMN immunofluorescence quantification (cytoplasm, nucleus, GEMs) in fibroblasts from SMA patients; type: cell-based, human; conditions: for Avg. SMN fold increase: human PDGF isoforms; for Avg. SMN fold increase / levels of cytoplasmic and nuclear SMN (in words): SMA patient fibroblasts; for decrease of basal level of SMN: added to the regular serum media in which cells are maintained, no added PDGF; for levels of cytoplasmic and nuclear SMN (in words): substance alone
Experimental: Specifically, fibroblasts from patients suffering from SMA were treated with Ionomycin (a channel modulator), Ouabain (a cardiac glycoside and channel modulator), PDGF, SAHA (an HDAC inhibitor), Lactacystin (a proteasome inhibitor) or WIN 55,212-2 (a cannabinoid receptor […] and GPCR ligand) for 72 hours. The cells were fixed with methanol/acetone and stained with Pharmingen BD antibodies, followed by 488 AlexaFluor staining. Images were obtained with 60× lens on Zeiss LSM510 META on an inverted confocal microscope.
For example, fibroblasts from patients suffering from SMA were treated with Ouabain, Digoxin or Lanatoside at a concentration of 0, 2.5 nM, 5 nM, 10 nM, 20 nM, 40 nM, 80 nM, […] for 72 hours. The cells were fixed with methanol/acetone and stained with Pharmingen BD antibodies, followed by 488 AlexaFluor staining. Images were obtained with 60× lens on Zeiss LSM510 META on an inverted confocal microscope.
An assay was established for high-content evaluation of SMN protein level in different cellular compartments after treatment with small molecules. SMN protein was visualized by immunofluorescent staining and multiple fields from each plate well were scanned by an automated confocal Opera microscope. […] For each well, the algorithm generated quantitative parameters representing number of cells, as well as SMN fluorescent intensity per cell in cytoplasm, nucleus, number and intensity of GEMs (FIG. 15). […] During the assay transfer to the robotic platform fixation with the ice cold methanol was technically limited, therefore to preserve the maximum possible window we chose to perform the screen on parental fibroblast with PFA fixation.
For fibroblast assays, human fibroblasts lines GM09677 (derived from patient with SMA type 1 disease) and GM03814 (derived from unaffected parental SMA carriers) were used (Coriell Cell Repositories). […] For secondary assays cells from GM09677 line were used.
Fibroblasts were grown in MEM media (Invitrogen) supplemented with 5% Fetal Bovine Serum (FBS, Invitrogen), 2 mM glutamine and 1% penicillin-streptomycin (100 U/ml) in a presence of 5% CO2 at 37° C. For drug treatments, cells were plated and treated 24 h later with 10 μM MG132 (Biomol International), […] Calpeptin (Biomol International), 10 mM ammonium chloride, 1 μM myristoylated PKI, or vehicle for the designated times.
(§1) Compounds were stored at appropriate temperature and dissolved accordingly to the manufacturers (Tocris, Enzo, EMD and Sigma-Aldrich) in DMSO (Sigma-Aldrich), unless stated otherwise (Monensin Na in EtOH, DMPQ in water). Growth factors and PDGF neutralizing antibodies (R&D Systems) were reconstituted with buffers recommended by the supplier. For generation of the dose curves, 1×10^3 fibroblasts were plated on to 96-well Greiner Senso plates (VWR) and treated with compounds on the second day then fixed and stained at the indicated time points. For GSK inhibitors and performing p-GSK3b(Ser9) detection, two days after plating growth media containing 5% FBS was replaced to the media with FBS reduced down to 0.5%, to starve cells for 72 hours. Addition of the GSK inhibitors was done in 5% FBS enriched media.

SMN [2] = assay: Inhibition of PDGF-stimulated SMN increase in fibroblasts by kinase/receptor inhibitors; type: cell-based, human; conditions: for SMN Cytoplam (inhibition of PDGF-stimulated SMN increase) / SMN GEM Intensity (inhibition of PDGF-stimulated SMN increase) / SMN Nuclear (inhibition of PDGF-stimulated SMN increase): inhibitor at the concentration (nM), fibroblast stimulation with PDGF; for PDGF-stimulated SMN increase in presence of inhibitor (in words): SMA patient fibroblasts, PDGF plus inhibitor or neutralizing antibody; for Cell Number (affected by inhibitor): inhibitor at the concentration of the table row, PDGF stimulated fibroblasts; for PDGF-stimulated SMN increase in the cytoplasm in presence of inhibitor (in words) / PDGF-stimulated SMN increase in the nucleus in presence of inhibitor (in words): pre-treatment with p38 inhibitor
Experimental: Fibroblasts from patients suffering from SMA were treated with PDGF at a concentration of 0, 0.3 ng/ml, 0.63 ng/ml, 1.25 ng/ml, 2.5 ng/ml, 5 ng/ml, 10 ng/ml or 20 ng/ml, in the absence or in the presence of 25 uM DMPQ or 25 uM AG-1296 respectively for 72 hours. The levels of both cytoplasmic and nuclear SMN were detected and quantified using the method described in Example 2.
(§2) Fibroblasts from patients suffering from SMA were either control treated or treated with PDGF at a concentration of 0, 0.63 ng/ml, 1.25 ng/ml, 2.5 ng/ml, 5 ng/ml, 10 ng/ml or 20 ng/ml, in the absence or in the presence of 50 uM LY294002 or 2 uM P1-103 respectively for 72 hours. The levels of both cytoplasmic and nuclear SMN were detected and quantified using the method described in Example 2.
as §2, with “of” for “of 50 uM LY294002 or”, “uM Papamycin” for “uM P1-103 respectively”, “Example x.” for “Example 2.”
A range of concentrations were tested in order not to miss the effects. SMN level were evaluated by Opera Evoteck in each cellular compartment and to assess the cell numbers that are summarized in the Table 3.
as §1, with “media. As previously described, starvation increases levels of constitutively activate GSK3b kinase, allowing to achieve a more dramatic inhibitory effect when GSK inhibitors are added together with growth factors that are also known to inhibit GSK by Ser-9 phosphorylation. […] For all compounds and growth factors control wells received solvent in amount equivalent to the highest concentration of the compound in a dose curve. For PDGF inhibitory studies, cells were pre-treated with kinase inhibitors for 2 hours and PDGF was added with a fresh kinase inhibitor solution and incubated for an additional 3 days.” for “media.”

SMN [3] = assay: High-content fibroblast screen for compounds that modulate SMN level; conditions: for SMN level in fibroblast screen (increase or decrease): human fibroblasts, 2-3 days with compound;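 for all read-outs here: Anti-SMN immunostaining with confocal imaging of nuclear and cytoplasmic SMN and gem counts, tested at 0.1, 1 and 10 uM, fold change relative to negative control wells on each plate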
Experimental: Human fibroblasts were incubated for 2-3 days with compounds from annotated collections. Cells were fixed and stained with an anti-SMN antibody. Confocal imaging was used to quantify SMN fluorescence in nucleus and cytoplasm and count Gems. Data were collected and subsequently analyzed by clustering compounds by suspected mechanism of action and chemical structure.
Following optimization of assay conditions on day 0, total of 500 human fibroblasts (GM09677 line) per well were seeded in 384-well plates, on day 3 they were treated with compounds (robot CyBio) from the annotated collections and on the 5 day plates were fixed and stained (robot MAPD) with an anti-SMN antibody and secondary antibody conjugated with 448 fluorophore (FIG. 19a). Compounds from the libraries were added in duplicate at three final concentrations of 10, 1 and 0.1 uM.
SMN detection was done on the automated confocal microscope Opera PerkinElmer with separate fluorescent exposures to 488 nM laser for and a UV light source to detect nuclei stained with Hoechst 33258 with a 20× objective.
After scanning on the Opera, an XML file extraction workflow, designed with Inforsense KDE, was used to assemble the data from multiple replicate plates of each HCS experiment including the quantitative parameters described above and chemical identities, chemical concentrations and indications of which wells were used for positive and negative controls. […] The fold-induction of SMN intensity values for each well treated with a library chemical were normalized to the SMN average intensity in multiple negative control wells per plate.
Since it is not known which form of SMN increase is the most essential, hits that scored in a duplicate at least in two different parameters greater than 1.3 fold at any of the three concentrations were selected (FIG. 19d). […] Further, 220 compounds were screened in the absence of anti-SMN primary antibody with the same assay conditions, to filter out the fluorescent compounds.

Compound: PDGF-AB rec.: recombinant PDGF-AB
- Avg. SMN fold increase (SMN [1]): 1.7-1.9 fold

Compound: CO[C@H]1C[C@@H]2CC[C@@H](C)[C@@](O)(O2)C(=O)C(=O)N2CCCC[C@H]2C(=O)O[C@H]([C@H](C)C[C@@H]2CC[C@@H](O)[C@H](OC)C2)CC(=O)[C@H](C)/C=C(\C)[C@@H](O)[C@@H](OC)C(=O)[C@H](C)C[C@H](C)/C=C/C=C/C=C/1C [Rapamycin]
- SMN Cytoplam (inhibition of PDGF-stimulated SMN increase) (SMN [2]): 80%
- SMN GEM Intensity (inhibition of PDGF-stimulated SMN increase) (SMN [2]): 80-100%
- SMN Nuclear (inhibition of PDGF-stimulated SMN increase) (SMN [2]): 80-100%

Compound: C[C@H]1O[C@@H](O[C@H]2[C@@H](O)C[C@H](O[C@H]3[C@@H](O)C[C@H](O[C@H]4CC[C@@]5(C)[C@H](CC[C@@H]6[C@@H]5CC[C@]5(C)[C@@H](C7=CC(=O)OC7)CC[C@]65O)C4)O[C@@H]3C)O[C@@H]2C)C[C@H](O)[C@@H]1O [Dititoxin]
- SMN level in fibroblast screen (increase or decrease) (SMN [3]): increase SMN

Compound: N#CC(=C(/N)Sc1ccccc1N)/C(C#N)=C(\N)Sc1ccccc1N [U0126]
- PDGF-stimulated SMN increase in presence of inhibitor (in words) (SMN [2]): only partially inhibited
- SMN Cytoplam (inhibition of PDGF-stimulated SMN increase) (SMN [2]): 20-30% ^
- SMN GEM Intensity (inhibition of PDGF-stimulated SMN increase) (SMN [2]): 10%
- SMN Nuclear (inhibition of PDGF-stimulated SMN increase) (SMN [2]): 10%
- Cell Number (affected by inhibitor) (SMN [2]): No

Compound: CC(C)[C@@H]1NC(=O)[C@H](C)OC(=O)[C@@H](C(C)C)NC(=O)[C@@H](C(C)C)OC(=O)[C@H](C(C)C)NC(=O)[C@H](C)OC(=O)[C@@H](C(C)C)NC(=O)[C@@H](C(C)C)OC(=O)[C@H](C(C)C)NC(=O)[C@H](C)OC(=O)[C@@H](C(C)C)NC(=O)[C@@H](C(C)C)OC1=O [Valinomycin]
- SMN level in fibroblast screen (increase or decrease) (SMN [3]): increase SMN

Compound: COc1ccc(C[C@H]2NC[C@H](O)[C@H]2OC(C)=O)cc1 [Anysomycin]
- concentration at which SMN level was increased (SMN [3]; during screening): 0.1 µM
- SMN level in fibroblast screen (increase or decrease) (SMN [3]): increase SMN

Compound: O=c1cc(N2CCOCC2)oc2c(-c3ccccc3)cccc12 [LY294002]
- decrease of basal level of SMN (SMN [1]): 40%
- reduction of SMN (SMN [1]; combinatory treatment of 0.5% serum and PI-3 kinase inhibitor, patient cells): 20%
- SMN Cytoplam (inhibition of PDGF-stimulated SMN increase) (SMN [2]): 100%
- SMN GEM Intensity (inhibition of PDGF-stimulated SMN increase) (SMN [2]): 100%
- SMN Nuclear (inhibition of PDGF-stimulated SMN increase) (SMN [2]): 100%

Compound: O=C(Nc1cc(C(F)(F)F)cc(C(F)(F)F)c1)c1cc(Cl)ccc1O [IMD-0354]
- SMN level in fibroblast screen (increase or decrease) (SMN [3]): SMN is increase

Compound: Nc1ccc(-c2cccc3c(=O)cc(N4CCOCC4)oc23)cc1 [PI-828]
- SMN level in fibroblast screen (increase or decrease) (SMN [3]): decreased SMN

Compound: DMSO
- decrease of basal level of SMN (SMN [1]): 20%

Compound: O=C(Nc1ccc([N+](=O)[O-])cc1Cl)c1cc(Cl)ccc1O [Niclosamide]
- SMN level in fibroblast screen (increase or decrease) (SMN [3]): SMN is increase

Compound: CC(=O)O[C@@H]1[C@@H](OC(C)=O)[C@@H](O)[C@H](Oc2c(-c3ccc(O)cc3)oc3cc(O)cc(O)c3c2=O)O[C@H]1C [SL-0101]
- PDGF-stimulated SMN increase in presence of inhibitor (in words) (SMN [2]): didn't have an inhibitory effect
- SMN Cytoplam (inhibition of PDGF-stimulated SMN increase) (SMN [2]): 20%
- SMN GEM Intensity (inhibition of PDGF-stimulated SMN increase) (SMN [2]): 20%
- SMN Nuclear (inhibition of PDGF-stimulated SMN increase) (SMN [2]): 20%

- PDGF-stimulated SMN increase in presence of inhibitor (in words) (SMN [2]): only partially inhibited
- SMN Cytoplam (inhibition of PDGF-stimulated SMN increase) (SMN [2]): 20%
- SMN GEM Intensity (inhibition of PDGF-stimulated SMN increase) (SMN [2]): 20%
- SMN Nuclear (inhibition of PDGF-stimulated SMN increase) (SMN [2]): 20%
Compound: COc1cccc(-c2cc(=O)c3ccccc3o2)c1N [PD98059]
- Cell Number (affected by inhibitor) (SMN [2]): Yes

Compound: CC(C)C[C@@H](C=O)NC(=O)[C@H](CC(C)C)NC(=O)[C@H](CC(C)C)NC(=O)OCc1ccccc1 [MG-132] (Cbz-Leu-Leu-Leu-aldehyde)
- SMN level in fibroblast screen (increase or decrease) (SMN [3]): increase SMN

Compound: OCCN(CCO)c1nc(N2CCCCC2)c2nc(N(CCO)CCO)nc(N3CCCCC3)c2n1 [Dipyridamole]
- SMN level in fibroblast screen (increase or decrease) (SMN [3]): increase SMN

Compound: CCCCC/C=C\C/C=C\C/C=C\C/C=C\CCCC(=O)NCCO [Anandamide]
- SMN level in fibroblast screen (increase or decrease) (SMN [3]): increase SMN

Compound: CC(=O)C1=C(O)[C@@H]2[C@H]3c4c[nH]c5cccc(c45)C[C@H]3C(C)(C)N2C1=O [Cyclopiazonic acid]
- levels of cytoplasmic and nuclear SMN (in words) (SMN [1]): not active

- SMN Cytoplam (inhibition of PDGF-stimulated SMN increase) (SMN [2]): 20%
- SMN GEM Intensity (inhibition of PDGF-stimulated SMN increase) (SMN [2]): some
- SMN Nuclear (inhibition of PDGF-stimulated SMN increase) (SMN [2]): 0%
Compound: Oc1ccc(-c2nc(-c3ccc(F)cc3)c(-c3ccncc3)[nH]2)cc1 [SB202190]
- Cell Number (affected by inhibitor) (SMN [2]): Yes
- PDGF-stimulated SMN increase in the cytoplasm in presence of inhibitor (in words) (SMN [2]): able to prevent SMN increase induced by PDGF; also recorded: partial inhibition of SMN in the cytoplasm
- PDGF-stimulated SMN increase in the nucleus in presence of inhibitor (in words) (SMN [2]): not in the nucleus; also recorded: leaving nuclear SMN unaffected

Compound: FGF2: fibroblast growth factor, RTK ligand
- levels of cytoplasmic and nuclear SMN (in words) (SMN [1]): increases SMN levels
- levels of cytoplasmic and nuclear SMN (in words) (SMN [1]; listed as bFGF): active

Compound: C[S+]([O-])c1ccc(-c2nc(-c3ccc(F)cc3)c(-c3ccncc3)[nH]2)cc1 (centres unmarked) [SB203580, 4-(4-Fluorophenyl)-2-(4-methylsulfinylphenyl)-5-(4-pyridyl)-1H-imidazole]
- SMN Cytoplam (inhibition of PDGF-stimulated SMN increase) (SMN [2]): 20%
- SMN GEM Intensity (inhibition of PDGF-stimulated SMN increase) (SMN [2]): some
- SMN Nuclear (inhibition of PDGF-stimulated SMN increase) (SMN [2]): 0%
- Cell Number (affected by inhibitor) (SMN [2]): Yes
- PDGF-stimulated SMN increase in the cytoplasm in presence of inhibitor (in words) (SMN [2]): able to prevent SMN increase induced by PDGF; also recorded: partial inhibition of SMN in the cytoplasm
- PDGF-stimulated SMN increase in the nucleus in presence of inhibitor (in words) (SMN [2]): not in the nucleus; also recorded: leaving nuclear SMN unaffected

Compound: Ryanodine
- levels of cytoplasmic and nuclear SMN (in words) (SMN [1]): weak effect

Compound: Cc1c[nH]c(-c2cnc(NCCNc3ccc(C#N)cn3)nc2-c2ccc(Cl)cc2Cl)n1 [CHIR99021]
- levels of cytoplasmic and nuclear SMN (in words) (SMN [1]): increase SMN levels; also recorded: Most active compounds

Compound: PDGF-AA rec.: recombinant PDGF-AA
- Avg. SMN fold increase (SMN [1]): 1.3-1.4 fold

Compound: COC(=O)C1=C(C)NC(C)=C([N+](=O)[O-])C1c1ccccc1C(F)(F)F (centres unmarked) [Bay K8644]
- levels of cytoplasmic and nuclear SMN (in words) (SMN [1]): not active
